Test results as given in US6737383B1, “Herbicidal oxadiazolidines” (priority 1999, dated 2004).

Columns and labels:
bedstraw = assay: Test B pre/postemergence bedstraw; type: in vivo, Galium aparine
How it was run: (§1)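 Herbicidal effect was estimated by eye on a ten-point control scale after plants spent twelve to sixteen days in a greenhouse following soil or foliar treatment. Foliar sprays targeted plants at one to four leaves; all doses were formulated in a non-phytotoxic solvent with surfactant.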

blackgrass = assay: Test B pre/postemergence blackgrass; type: in vivo, Alopecurus myosuroides
How it was run: as §1

surinam grass = assay: Test B pre/postemergence surinam grass; type: in vivo, Brachiaria decumbens
How it was run: as §1

cocklebur = assay: Test B pre/postemergence cocklebur; type: in vivo, Xanthium strumarium
How it was run: as §1

corn = assay: Test B pre/postemergence corn; type: in vivo, Zea mays
How it was run: as §1

crabgrass = assay: Test B pre/postemergence crabgrass; type: in vivo, Digitaria sanguinalis
How it was run: as §1

giant foxtail = assay: Test B pre/postemergence giant foxtail; type: in vivo, Setaria faberii
How it was run: as §1

morningglory = assay: Test B pre/postemergence morningglory; type: in vivo, Ipomoea hederacea
How it was run: as §1

pigweed = assay: Test B pre/postemergence pigweed; type: in vivo, Amaranthus retroflexus
How it was run: as §1

soybean = assay: Test B pre/postemergence soybean; type: in vivo, Glycine max
How it was run: as §1

sugar beet = assay: Test B pre/postemergence sugar beet; type: in vivo, Beta vulgaris
How it was run: as §1

wild oat = assay: Test B pre/postemergence wild oat; type: in vivo, Avena fatua
How it was run: as §1

purple nutsedge = assay: Test B pre/postemergence purple nutsedge; type: in vivo, Cyperus rotundus
How it was run: as §1

rice = assay: Test B flood test rice; type: in vivo, Oryza sativa
How it was run: (§2)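 Read-out is a visual response score from 0 (no effect) to 10 (complete control), assigned by comparison with untreated controls. Treatment was applied at the 2-leaf stage, and plants stayed in the greenhouse for twelve to sixteen days before scoring.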

smallflower flatsedge = assay: Test B flood test smallflower flatsedge; type: in vivo, Cyperus difformis
How it was run: as §2

duck salad = assay: Test B flood test duck salad; type: in vivo, Heteranthera limosa
How it was run: as §2

[1] = Postemergence, Rate 62 g/ha, scale 0 to 10, 0 is no effect, 10 is complete control
[2] = Preemergence, Rate 62 g/ha, scale 0 to 10 (0 no effect, 10 complete control)
[3] = Preemergence, Rate 125 g/ha, scale 0 to 10 (0 no effect, 10 complete control)
[4] = Preemergence, Rate 250 g/ha, scale of 0 to 10 where 0 is no effect and 10 is complete control
[5] = Preemergence, Rate 500 g/ha, scale 0 (no effect) to 10 (complete control)
[6] = Postemergence, Rate 125 g/ha, scale of 0 to 10 where 0 is no effect and 10 is complete control
[7] = Postemergence, Rate 250 g/ha, scale 0 to 10, 0 no effect, 10 complete control
[8] = Rate 500 g/ha, Postemergence, scale 0 to 10, 0 no effect, 10 complete control
[9] = Rate 250 g/ha, Postemergence, scale 0 to 10, 0 is no effect, 10 is complete control
[10] = Postemergence (flood test species), Rate 125 g/ha, scale of 0 to 10 where 0 is no effect and 10 is complete control
[11] = Rate 250 g/ha, Postemergence (flood test), scale 0 to 10, 0 is no effect, 10 is complete control
[12] = Rate 500 g/ha, listed under Postemergence (flood test species), scale 0 to 10, 0 no effect, 10 complete control

Compound: CC(C)N(C(=O)n1oc(=O)n(-c2cccc3c2CCCC3)c1=O)c1ccc(F)cc1 [Compound 90]
- Bedstraw plant response rating (bedstraw; [1]): 0
- Bedstraw plant response rating (bedstraw; [2]): 0
- Plant response rating, Bedstraw (bedstraw; [3]): 0
- Plant response rating, Bedstraw (bedstraw; [4]): 0
- Bedstraw plant response rating (bedstraw; [5]): 0
- Blackgrass plant response rating (blackgrass; [1]): 0
- Blackgrass plant response rating (blackgrass; [6]): 0
- Blackgrass plant response rating (blackgrass; [7]): 0
- Blackgrass plant response rating (blackgrass; [2]): 0
- Plant response rating, Blackgrass (blackgrass; [3]): 0
- Plant response rating, Blackgrass (blackgrass; [4]): 3
- Blackgrass plant response rating (blackgrass; [5]): 6
- Blackgrass plant response rating (blackgrass; [8]): 0
- B. signalgrass plant response rating (surinam grass; [1]): 0
- B. signalgrass plant response rating (surinam grass; [7]): 0
- B. signalgrass plant response rating (surinam grass; [2]): 0
- Plant response rating, B. signalgrass (surinam grass; [3]): 0
- B. signalgrass plant response rating (surinam grass; [5]): 3
- B. signalgrass plant response rating (surinam grass; Rate 125 g/ha, Postemergence, scale 0 to 10, 0 no effect, 10 complete control): 0
- B. signalgrass plant response rating (surinam grass; Rate 500 g/ha, Postemergence, scale of 0 to 10 where 0 is no effect and 10 is complete control): 0
- Cocklebur plant response rating (cocklebur; [1]): 1
- Cocklebur plant response rating (cocklebur; [6]): 3
- Cocklebur plant response rating (cocklebur; [7]): 3
- Cocklebur plant response rating (cocklebur; [2]): 0
- Plant response rating, Cocklebur (cocklebur; [3]): 0
- Plant response rating, Cocklebur (cocklebur; [4]): 0
- Cocklebur plant response rating (cocklebur; [5]): 0
- Cocklebur plant response rating (cocklebur; [8]): 5
- Corn plant response rating (corn; [1]): 0
- Corn plant response rating (corn; [6]): 0
- Corn plant response rating (corn; [7]): 0
- Corn plant response rating (corn; [2]): 0
- Plant response rating, Corn (corn; [3]): 0
- Plant response rating, Corn (corn; [4]): 0
- Corn plant response rating (corn; [5]): 0
- Corn plant response rating (corn; [8]): 0
- Crabgrass plant response rating (crabgrass; [1]): 1
- Crabgrass plant response rating (crabgrass; [6]): 2
- Crabgrass plant response rating (crabgrass; [7]): 2
- Crabgrass plant response rating (crabgrass; [2]): 0
- Plant response rating, Crabgrass (crabgrass; [3]): 2
- Plant response rating, Crabgrass (crabgrass; [4]): 8
- Crabgrass plant response rating (crabgrass; [5]): 8
- Crabgrass plant response rating (crabgrass; [8]): 4
- Giant foxtail plant response rating (giant foxtail; [1]): 0
- Giant foxtail plant response rating (giant foxtail; [6]): 0
- Giant foxtail plant response rating (giant foxtail; [7]): 1
- Giant foxtail plant response rating (giant foxtail; [2]): 4
- Plant response rating, Giant foxtail (giant foxtail; [3]): 8
- Plant response rating, Giant foxtail (giant foxtail; [4]): 9
- Giant foxtail plant response rating (giant foxtail; [5]): 10
- Giant foxtail plant response rating (giant foxtail; [8]): 1
- Morningglory plant response rating (morningglory; [1]): 3
- Morningglory plant response rating (morningglory; [6]): 3
- Morningglory plant response rating (morningglory; [7]): 4
- Morningglory plant response rating (morningglory; [2]): 0
- Plant response rating, Morningglory (morningglory; [3]): 0
- Plant response rating, Morningglory (morningglory; [4]): 0
- Morningglory plant response rating (morningglory; [5]): 0
- Morningglory plant response rating (morningglory; [8]): 4
- Redroot pigweed plant response rating (pigweed; [1]): 2
- Redroot pigweed plant response rating (pigweed; [6]): 5
- Redroot pigweed plant response rating (pigweed; [2]): 0
- Plant response rating, Redroot pigweed (pigweed; [3]): 0
- Plant response rating, Redroot pigweed (pigweed; [4]): 0
- Redroot pigweed plant response rating (pigweed; [5]): 6
- Plant response rating, Redroot pigweed (pigweed; [9]): 6
- Redroot pigweed plant response rating (pigweed; [8]): 7
- Soybean plant response rating (soybean; [1]): 4
- Soybean plant response rating (soybean; [6]): 4
- Soybean plant response rating (soybean; [2]): 0
- Plant response rating, Soybean (soybean; [3]): 0
- Plant response rating, Soybean (soybean; [4]): 0
- Soybean plant response rating (soybean; [5]): 0
- Plant response rating, Soybean (soybean; [9]): 4
- Soybean plant response rating (soybean; [8]): 4
- Sugarbeets plant response rating (sugar beet; [1]): 0
- Sugarbeets plant response rating (sugar beet; [6]): 0
- Sugarbeets plant response rating (sugar beet; [2]): 0
- Plant response rating, Sugarbeets (sugar beet; [3]): 0
- Plant response rating, Sugarbeets (sugar beet; [4]): 0
- Sugarbeets plant response rating (sugar beet; [5]): 0
- Plant response rating, Sugarbeets (sugar beet; [9]): 3
- Sugarbeets plant response rating (sugar beet; [8]): 3
- Wild oats plant response rating (wild oat; [1]): 0
- Wild oats plant response rating (wild oat; [6]): 0
- Wild oats plant response rating (wild oat; [2]): 0
- Plant response rating, Wild oats (wild oat; [3]): 0
- Plant response rating, Wild oats (wild oat; [4]): 2
- Wild oats plant response rating (wild oat; [5]): 3
- Plant response rating, Wild oats (wild oat; [9]): 0
- Wild oats plant response rating (wild oat; [8]): 0
- Nutsedge plant response rating (purple nutsedge; [1]): 0
- Nutsedge plant response rating (purple nutsedge; [6]): 0
- Nutsedge plant response rating (purple nutsedge; [7]): 0
- Nutsedge plant response rating (purple nutsedge; [2]): 0
- Plant response rating, Nutsedge (purple nutsedge; [3]): 0
- Plant response rating, Nutsedge (purple nutsedge; [4]): 0
- Nutsedge plant response rating (purple nutsedge; [5]): 0
- Nutsedge plant response rating (purple nutsedge; [8]): 0
- Rice plant response rating (rice; [10]): 0
- Rice plant response rating (rice; [1]): 0
- Plant response rating, Rice (rice; [11]): 0
- Rice plant response rating (rice; [12]): 0
- S. Flatsedge plant response rating (smallflower flatsedge; [10]): 0
- S. Flatsedge plant response rating (smallflower flatsedge; [1]): 0
- Plant response rating, S. Flatsedge (smallflower flatsedge; [11]): 0
- S. Flatsedge plant response rating (smallflower flatsedge; [12]): 0
- Ducksalad plant response rating (duck salad; [10]): 0
- Ducksalad plant response rating (duck salad; [1]): 0
- Ducksalad plant response rating (duck salad; [12]): 0
- Ducksalad plant response rating (duck salad; flood test, listed under Postemergence, Rate 250 g/ha, scale 0 to 10, 0 no effect, 10 complete control): 0
